# Measurements from ChEMBL document CHEMBL5465560, “Selectivity Literature for EUbOPEN Chemogenomic Library” (2024).
# Assays:
# [1] = biological target: T1, Inhibitor of nuclear factor kappa-B kinase subunit beta (Homo sapiens) (UniProt O14920); test: Selectivity interaction (Kinase panel (literature)) EUB0001199aCl IKBKB; conditions: at 1 µM
# T1 sequence (whole entry): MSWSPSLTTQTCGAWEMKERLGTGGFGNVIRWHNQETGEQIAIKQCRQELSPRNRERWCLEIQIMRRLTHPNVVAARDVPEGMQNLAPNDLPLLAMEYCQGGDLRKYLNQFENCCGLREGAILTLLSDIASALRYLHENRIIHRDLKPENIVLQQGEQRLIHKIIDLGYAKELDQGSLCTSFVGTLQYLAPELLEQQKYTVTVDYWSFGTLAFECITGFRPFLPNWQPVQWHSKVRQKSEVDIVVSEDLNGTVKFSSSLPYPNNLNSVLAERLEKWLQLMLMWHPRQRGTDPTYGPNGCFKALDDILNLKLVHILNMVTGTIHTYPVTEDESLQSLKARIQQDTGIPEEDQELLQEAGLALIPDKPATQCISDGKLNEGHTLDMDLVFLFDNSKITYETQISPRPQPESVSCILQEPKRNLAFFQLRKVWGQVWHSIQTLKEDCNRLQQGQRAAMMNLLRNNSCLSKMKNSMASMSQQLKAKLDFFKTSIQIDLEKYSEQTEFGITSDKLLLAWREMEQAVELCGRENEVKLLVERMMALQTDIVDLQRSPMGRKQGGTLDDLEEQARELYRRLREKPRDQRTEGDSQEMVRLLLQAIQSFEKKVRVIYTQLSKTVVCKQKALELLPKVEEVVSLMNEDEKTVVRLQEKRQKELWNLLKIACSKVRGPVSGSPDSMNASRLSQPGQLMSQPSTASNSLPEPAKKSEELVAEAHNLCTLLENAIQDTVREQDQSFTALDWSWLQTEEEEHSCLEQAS
# [2] = biological target: T2, Phosphorylase b kinase gamma catalytic chain, liver/testis isoform (Homo sapiens) (UniProt P15735); test: Selectivity interaction (Kinase panel (Invitrogen)) EUB0000639a PHKG2; conditions: at 200 nM
# T2 sequence (whole entry): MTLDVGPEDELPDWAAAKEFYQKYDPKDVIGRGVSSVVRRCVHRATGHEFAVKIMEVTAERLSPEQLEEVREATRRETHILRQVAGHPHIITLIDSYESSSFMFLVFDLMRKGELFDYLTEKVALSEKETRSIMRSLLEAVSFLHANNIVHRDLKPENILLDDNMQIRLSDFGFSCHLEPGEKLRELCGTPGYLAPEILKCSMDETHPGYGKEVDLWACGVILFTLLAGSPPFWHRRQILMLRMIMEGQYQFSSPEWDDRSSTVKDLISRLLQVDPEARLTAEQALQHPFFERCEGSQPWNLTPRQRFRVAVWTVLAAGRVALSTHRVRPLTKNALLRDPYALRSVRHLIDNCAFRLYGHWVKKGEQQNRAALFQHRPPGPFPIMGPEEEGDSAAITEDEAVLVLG
# [3] = biological target: Protein-tyrosine kinase 2-beta (Homo sapiens) (UniProt Q14289); test: Selectivity interaction (ActivX KiNativ screen (kinase selectivity in THP-1 cell lysates)) EUB0000639a PTK2B; assay type: subcellular; conditions: lysate, at 1 µM
# Aurora kinase B = Aurora kinase B (Homo sapiens, UniProt Q96GD4); test: Selectivity interaction (Kinase panel (Invitrogen)) EUB0000639a AURKB; conditions: at 200 nM
# Aurora kinase B, sequence (Q96GD4 whole entry): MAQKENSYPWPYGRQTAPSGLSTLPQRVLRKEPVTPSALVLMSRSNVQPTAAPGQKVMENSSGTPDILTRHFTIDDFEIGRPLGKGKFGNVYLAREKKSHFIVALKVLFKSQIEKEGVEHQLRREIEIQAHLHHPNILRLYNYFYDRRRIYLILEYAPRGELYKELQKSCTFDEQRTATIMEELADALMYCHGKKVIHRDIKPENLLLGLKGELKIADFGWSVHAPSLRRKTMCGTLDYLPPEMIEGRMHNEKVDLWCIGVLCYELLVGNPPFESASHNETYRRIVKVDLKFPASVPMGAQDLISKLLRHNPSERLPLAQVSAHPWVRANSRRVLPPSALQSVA
# Insulin receptor = Insulin receptor (Homo sapiens, UniProt P06213); test: Selectivity interaction (KinomeScan (DiscoverX)) EUB0000045b INSR
# Insulin receptor, sequence (P06213 28-758 limits assumed): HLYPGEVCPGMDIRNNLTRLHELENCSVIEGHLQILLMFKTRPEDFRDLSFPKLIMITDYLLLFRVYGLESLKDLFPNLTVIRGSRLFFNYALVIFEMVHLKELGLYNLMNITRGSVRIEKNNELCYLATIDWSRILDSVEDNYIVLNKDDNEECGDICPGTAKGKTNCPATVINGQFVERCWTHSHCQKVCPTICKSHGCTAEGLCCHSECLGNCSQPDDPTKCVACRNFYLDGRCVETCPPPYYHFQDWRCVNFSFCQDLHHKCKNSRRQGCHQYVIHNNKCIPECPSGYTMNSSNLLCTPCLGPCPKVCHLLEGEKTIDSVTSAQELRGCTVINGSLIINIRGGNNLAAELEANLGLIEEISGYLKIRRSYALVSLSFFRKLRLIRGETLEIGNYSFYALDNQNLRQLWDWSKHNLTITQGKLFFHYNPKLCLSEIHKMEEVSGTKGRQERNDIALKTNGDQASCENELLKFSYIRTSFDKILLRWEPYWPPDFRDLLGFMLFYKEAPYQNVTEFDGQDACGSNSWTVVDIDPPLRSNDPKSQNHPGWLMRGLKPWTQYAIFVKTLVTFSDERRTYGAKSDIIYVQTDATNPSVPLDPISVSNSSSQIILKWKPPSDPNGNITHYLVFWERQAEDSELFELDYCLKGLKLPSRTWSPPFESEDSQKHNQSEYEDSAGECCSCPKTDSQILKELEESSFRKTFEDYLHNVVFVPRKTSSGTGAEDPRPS
# Insulin receptor, sequence (P06213 763-1382 limits assumed): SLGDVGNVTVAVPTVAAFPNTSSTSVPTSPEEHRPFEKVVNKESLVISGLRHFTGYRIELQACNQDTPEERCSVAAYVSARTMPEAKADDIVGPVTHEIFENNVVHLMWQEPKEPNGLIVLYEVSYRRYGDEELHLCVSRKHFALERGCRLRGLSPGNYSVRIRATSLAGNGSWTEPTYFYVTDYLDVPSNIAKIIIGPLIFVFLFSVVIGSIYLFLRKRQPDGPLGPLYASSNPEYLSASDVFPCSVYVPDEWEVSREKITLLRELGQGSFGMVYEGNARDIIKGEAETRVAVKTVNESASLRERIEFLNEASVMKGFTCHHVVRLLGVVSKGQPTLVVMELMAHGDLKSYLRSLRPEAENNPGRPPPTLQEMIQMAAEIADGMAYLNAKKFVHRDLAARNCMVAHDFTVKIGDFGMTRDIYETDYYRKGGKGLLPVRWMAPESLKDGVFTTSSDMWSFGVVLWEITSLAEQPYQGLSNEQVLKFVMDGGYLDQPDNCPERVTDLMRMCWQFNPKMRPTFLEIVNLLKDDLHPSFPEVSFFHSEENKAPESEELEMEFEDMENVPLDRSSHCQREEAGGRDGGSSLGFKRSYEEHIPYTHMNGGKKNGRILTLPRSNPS
# [4] = biological target: Serine/threonine-protein kinase PLK2 (Homo sapiens, UniProt Q9NYY3); test: Selectivity interaction (KinomeScan (DiscoverX)) EUB0000045b PLK2
# Serine/threonine-protein kinase PLK2, sequence (Q9NYY3 whole entry, looked up): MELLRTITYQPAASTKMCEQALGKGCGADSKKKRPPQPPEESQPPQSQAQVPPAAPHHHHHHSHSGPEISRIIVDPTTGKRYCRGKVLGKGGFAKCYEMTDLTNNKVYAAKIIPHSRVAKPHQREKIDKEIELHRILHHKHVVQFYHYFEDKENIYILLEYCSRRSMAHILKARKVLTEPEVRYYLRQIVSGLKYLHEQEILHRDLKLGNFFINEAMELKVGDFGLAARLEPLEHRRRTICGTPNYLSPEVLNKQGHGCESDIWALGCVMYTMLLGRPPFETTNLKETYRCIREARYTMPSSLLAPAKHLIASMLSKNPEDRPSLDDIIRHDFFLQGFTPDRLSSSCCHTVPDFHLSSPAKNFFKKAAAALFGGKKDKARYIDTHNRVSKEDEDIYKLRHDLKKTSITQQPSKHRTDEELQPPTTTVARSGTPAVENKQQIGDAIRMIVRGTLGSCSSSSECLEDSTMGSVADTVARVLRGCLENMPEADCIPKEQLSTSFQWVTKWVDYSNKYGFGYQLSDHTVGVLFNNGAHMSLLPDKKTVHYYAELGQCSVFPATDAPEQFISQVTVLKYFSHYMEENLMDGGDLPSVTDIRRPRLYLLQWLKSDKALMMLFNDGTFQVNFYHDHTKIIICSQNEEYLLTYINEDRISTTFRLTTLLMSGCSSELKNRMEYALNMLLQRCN
# [5] = biological target: Ribosomal protein S6 kinase alpha-5 (Homo sapiens) (UniProt O75582); conditions: at 10 µM
# [6] = biological target: T3, Mitogen-activated protein kinase kinase kinase 2 (Homo sapiens) (UniProt Q9Y2U5); test: Selectivity interaction (ActivX KiNativ screen (ex vivo kinase selectivity in human PBMCs)) EUB0001619a MAP3K2; assay type: cell-based; conditions: PBMC, at 1 µM
# T3 sequence (whole entry): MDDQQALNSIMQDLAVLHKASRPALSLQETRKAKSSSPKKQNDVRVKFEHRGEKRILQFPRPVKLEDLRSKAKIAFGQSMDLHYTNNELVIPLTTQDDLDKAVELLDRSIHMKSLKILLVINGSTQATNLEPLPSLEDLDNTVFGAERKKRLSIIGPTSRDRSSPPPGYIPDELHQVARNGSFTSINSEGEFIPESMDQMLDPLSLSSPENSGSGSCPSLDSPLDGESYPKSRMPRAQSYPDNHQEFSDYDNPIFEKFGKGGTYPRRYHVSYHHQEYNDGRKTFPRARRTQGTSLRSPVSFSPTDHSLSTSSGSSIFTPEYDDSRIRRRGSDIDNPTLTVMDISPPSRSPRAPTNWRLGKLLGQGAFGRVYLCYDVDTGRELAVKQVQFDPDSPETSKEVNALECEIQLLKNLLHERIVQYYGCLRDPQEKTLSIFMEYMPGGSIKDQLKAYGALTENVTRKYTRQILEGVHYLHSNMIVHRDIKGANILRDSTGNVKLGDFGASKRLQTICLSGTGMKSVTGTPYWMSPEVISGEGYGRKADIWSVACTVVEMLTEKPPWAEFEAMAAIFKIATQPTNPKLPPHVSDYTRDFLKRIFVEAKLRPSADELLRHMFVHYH
# [7] = biological target: Histone-lysine N-methyltransferase KMT5B (Homo sapiens) (UniProt Q4FZB7); test: Selectivity interaction (Methyltransferase screen (radiometric assays, panel of 8 PRMTs, 21 protein lysine methyltransferases, 3 DNA methyltransferases, and one RNA methyltransferase)) EUB0000272b SUV420H1
# Histone-lysine N-methyltransferase KMT5B (Homo sapiens), sequence (Q4FZB7 whole entry, looked up): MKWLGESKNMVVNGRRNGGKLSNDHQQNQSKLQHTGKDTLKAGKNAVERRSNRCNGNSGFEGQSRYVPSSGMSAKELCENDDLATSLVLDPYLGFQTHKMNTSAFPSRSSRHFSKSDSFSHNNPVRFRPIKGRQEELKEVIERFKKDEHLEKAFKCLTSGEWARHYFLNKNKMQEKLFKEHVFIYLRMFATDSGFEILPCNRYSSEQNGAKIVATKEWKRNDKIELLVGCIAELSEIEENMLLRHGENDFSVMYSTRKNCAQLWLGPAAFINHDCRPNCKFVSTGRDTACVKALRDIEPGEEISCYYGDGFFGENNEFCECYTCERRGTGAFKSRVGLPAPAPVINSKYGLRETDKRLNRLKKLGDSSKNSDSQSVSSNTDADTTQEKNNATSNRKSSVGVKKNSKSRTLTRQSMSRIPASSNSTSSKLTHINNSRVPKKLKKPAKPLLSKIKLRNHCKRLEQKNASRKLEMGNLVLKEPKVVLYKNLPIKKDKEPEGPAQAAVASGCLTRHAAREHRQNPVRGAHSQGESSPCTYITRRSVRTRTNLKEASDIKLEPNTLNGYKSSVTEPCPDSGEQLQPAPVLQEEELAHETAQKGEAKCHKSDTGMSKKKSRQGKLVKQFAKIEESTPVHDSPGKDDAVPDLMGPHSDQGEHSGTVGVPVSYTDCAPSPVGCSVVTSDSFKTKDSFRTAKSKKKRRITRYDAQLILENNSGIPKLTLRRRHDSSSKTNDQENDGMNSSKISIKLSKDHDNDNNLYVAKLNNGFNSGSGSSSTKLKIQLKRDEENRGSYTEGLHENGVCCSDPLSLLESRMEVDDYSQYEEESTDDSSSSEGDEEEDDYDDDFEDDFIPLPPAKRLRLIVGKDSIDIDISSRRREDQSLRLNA
# [8] = biological target: Protein-tyrosine kinase 6 (Homo sapiens, UniProt Q13882); test: Selectivity interaction (Kinase panel (Z-LYTE Assay)) EUB0001632a PTK6; conditions: at 10 µM
# [9] = biological target: Serine/threonine-protein kinase SIK3 (Homo sapiens) (UniProt Q9Y2K2); test: Selectivity interaction (LanthaScreen Eu Kinase Binding Assay) EUB0001632a SIK3; conditions: at 10 µM
# [10] = biological target: Serine/threonine-protein kinase WNK3 (Homo sapiens) (UniProt Q9BYP7); test: Selectivity interaction (ProQinase) EUB0000171b WNK3
# Serine/threonine-protein kinase WNK3 (Homo sapiens), sequence (Q9BYP7 whole entry): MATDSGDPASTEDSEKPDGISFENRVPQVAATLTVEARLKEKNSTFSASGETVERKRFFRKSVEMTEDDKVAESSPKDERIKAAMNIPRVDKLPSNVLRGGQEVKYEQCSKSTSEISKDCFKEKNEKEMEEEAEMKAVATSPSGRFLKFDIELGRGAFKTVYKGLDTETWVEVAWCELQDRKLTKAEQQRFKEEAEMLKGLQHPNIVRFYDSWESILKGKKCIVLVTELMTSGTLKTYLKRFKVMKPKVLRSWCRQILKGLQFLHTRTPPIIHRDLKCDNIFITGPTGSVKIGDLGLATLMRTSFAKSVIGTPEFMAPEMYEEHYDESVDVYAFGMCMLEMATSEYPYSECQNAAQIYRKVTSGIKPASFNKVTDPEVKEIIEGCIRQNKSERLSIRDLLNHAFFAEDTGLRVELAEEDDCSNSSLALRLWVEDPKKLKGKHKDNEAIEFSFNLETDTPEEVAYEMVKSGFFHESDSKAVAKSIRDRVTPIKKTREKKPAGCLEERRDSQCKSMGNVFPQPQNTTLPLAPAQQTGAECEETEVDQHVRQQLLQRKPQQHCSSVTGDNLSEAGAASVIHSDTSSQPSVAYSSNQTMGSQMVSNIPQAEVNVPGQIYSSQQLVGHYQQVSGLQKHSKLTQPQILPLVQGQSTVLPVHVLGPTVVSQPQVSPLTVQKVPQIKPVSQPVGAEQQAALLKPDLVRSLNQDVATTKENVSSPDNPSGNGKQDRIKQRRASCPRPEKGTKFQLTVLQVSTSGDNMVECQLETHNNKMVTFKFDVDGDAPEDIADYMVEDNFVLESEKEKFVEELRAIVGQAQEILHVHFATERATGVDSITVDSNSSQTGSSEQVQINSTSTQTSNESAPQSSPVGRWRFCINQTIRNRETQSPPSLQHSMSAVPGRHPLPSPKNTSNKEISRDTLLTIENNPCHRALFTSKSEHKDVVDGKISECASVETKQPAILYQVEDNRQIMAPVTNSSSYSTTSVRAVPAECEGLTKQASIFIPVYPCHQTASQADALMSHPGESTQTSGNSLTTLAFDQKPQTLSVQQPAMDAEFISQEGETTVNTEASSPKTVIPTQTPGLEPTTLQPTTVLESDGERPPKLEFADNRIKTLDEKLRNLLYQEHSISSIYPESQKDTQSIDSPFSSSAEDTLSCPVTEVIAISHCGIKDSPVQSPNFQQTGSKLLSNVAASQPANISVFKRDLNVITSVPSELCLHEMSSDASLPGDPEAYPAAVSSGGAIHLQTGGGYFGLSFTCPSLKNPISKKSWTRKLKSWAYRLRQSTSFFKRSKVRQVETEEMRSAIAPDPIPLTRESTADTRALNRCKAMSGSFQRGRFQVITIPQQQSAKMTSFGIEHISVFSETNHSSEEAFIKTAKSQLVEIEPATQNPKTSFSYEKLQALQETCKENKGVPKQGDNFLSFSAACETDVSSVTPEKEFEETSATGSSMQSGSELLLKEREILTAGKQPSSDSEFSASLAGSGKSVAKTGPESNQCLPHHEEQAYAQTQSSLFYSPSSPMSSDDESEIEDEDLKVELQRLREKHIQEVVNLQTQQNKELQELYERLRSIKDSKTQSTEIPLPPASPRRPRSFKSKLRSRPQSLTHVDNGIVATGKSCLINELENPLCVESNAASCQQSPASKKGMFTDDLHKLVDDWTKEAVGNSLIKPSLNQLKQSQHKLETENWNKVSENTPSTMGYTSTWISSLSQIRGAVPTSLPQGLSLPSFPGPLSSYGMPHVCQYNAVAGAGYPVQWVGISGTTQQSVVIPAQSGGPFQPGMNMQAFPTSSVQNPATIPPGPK
structure (smiles),measurement,setting,value
CN1Cc2nccc(-c3cn(C)nc3-c3ccc(F)cc3)c2C1=O,% of inhibition,[1],4%
CC[C@@H]1[C@H](F)C(=O)N[C@@H]1COc1nccc2cc(C(N)=O)c(OC)cc12 [ZIMLOVISERTIB],% of inhibition,[2],24.7%
same,% of inhibition,[3],-3.6%
same,% of inhibition,Aurora kinase B,11.3%
C=CC(=O)Nc1cc(-n2c(=O)ccc3cnc4ccc(-c5ccc(NS(C)(=O)=O)cc5)cc4c32)ccc1C,% of control,Insulin receptor; at 1 µM,93%
same,% of control,Insulin receptor; at 10 µM,100%
same,% of control,[4]; at 1 µM,72%
same,% of control,[4]; at 10 µM,86%
Cc1cc([C@@H](C)Nc2ccccc2C(=O)O)c2nc(N3CCOCC3)cc(=O)n2c1 [AZD-6482],% of control,[5],91%
N#Cc1cccc(-c2c[nH]c3ncnc(N4CCOCC4)c23)c1,% of inhibition,[6],22%
Cc1cc(C)cc([C@H]2c3cc(C)ccc3NC(=O)CN2C(=O)c2ccc(Br)s2)c1,% of activity,[7]; at 1 µM,103%
same,% of activity,[7]; at 10 µM,103%
Cn1cc(-n2cnc3c(NCc4nc5cc(Cl)c(Cl)cc5[nH]4)nc(N4CCOCC4)nc32)cn1,% of control,[8],9.47%
same,% of inhibition,[9],12.2%
C=CC(=O)Nc1cccc(C(=O)Nc2ccc(Nc3cc(-c4[nH]c(SC)nc4C)ccn3)cc2)c1,% of control,[10]; at 1 µM,79%
same,% of control,[10]; at 5 µM,67%
